According to patent US10947254B2, “Methods for treating ulcerative colitis using 3-((1R,3s,5S)-3-((7-((5-methyl-1H-pyrazol-3-yl)amino)-1,6-naphthyridin-5-yl)amino)-8-azabicyclo[3.2.1]octan-8-yl)propanenitrile” (priority 2015, dated 2021):

What was measured:
JAK3 = JAK3 (Homo sapiens (Human), UniProt P52333); experiment: Biochemical JAK assay (LanthaScreen), JAK3
Protocol: (§1) Assay 1: Biochemical JAK and Off-Target Kinase Assays
(§2) A panel of four LanthaScreen JAK biochemical assays (JAK1, 2, 3 and Tyk2) were carried in a common kinase reaction buffer (50 mM HEPES, pH 7.5, 0.01% Brij-35, 10 mM MgCl2, and 1 mM EGTA). Recombinant GST-tagged JAK enzymes and a GFP-tagged STAT1 peptide substrate were obtained from Life Technologies.
Serially diluted compounds were pre-incubated with each of the four JAK enzymes and the substrate in white 384-well microplates (Corning) at ambient temperature for 1 h. ATP was subsequently added to initiate the kinase reactions in 10 μL total volume, with 1% DMSO. […] The plates were allowed to incubate at ambient temperature for 1 h before being read on the EnVision reader (Perkin Elmer).
(§3) Results were expressed as pIC50 (negative logarithm of IC50) and subsequently converted to pKi (negative logarithm of dissociation constant, Ki) using the Cheng-Prusoff equation.

[1] = test system: IL-13 induced STAT6 phosphorylation in BEAS-2B human lung epithelial cells; details: BEAS-2B cells
JAK1 = JAK1 (Homo sapiens (Human), UniProt P23458); assay type: biochemical
Protocol: as §1, §2
(§4) Serially diluted compounds were pre-incubated with each of the four JAK enzymes and the substrate in white 384-well microplates (Corning) at ambient temperature for 1 h. ATP was subsequently added to initiate the kinase reactions in 10 μL total volume, with 1% DMSO. […] Kinase reactions were allowed to proceed for 1 hour at ambient temperature before a 10 μL preparation of EDTA (10 mM final concentration) and Tb-anti-pSTAT1 (pTyr701) antibody (Life Technologies, 2 nM final concentration) in TR-FRET dilution buffer (Life Technologies) was added. The plates were allowed to incubate at ambient temperature for 1 h before being read on the EnVision reader (Perkin Elmer).
as §3

TYK2 = TYK2 (Homo sapiens (Human), UniProt P29597); assay type: biochemical
Protocol: as §1, §2, §4, §3

[2] = test system: IL-4 induced STAT6 phosphorylation in THP-1 human monocytic cells; details: THP-1 cells
JAK2 = JAK2 (Homo sapiens (Human), UniProt O60674); assay type: biochemical
Protocol: as §1, §2, §4, §3

[3] = test system: splenic NK, B and T cells; experiment: Immunosuppression effects in mouse splenic natural killer (NK) cells; assay type: in vivo, Balb/C mice; details: mice, three days; for treatment effect on B and T cell populations: PO BID
Protocol: Adult male Balb/C mice (12-14 weeks of age) from Harlan were used for the study. […] Spleens were harvested 1 or 2 h post last dose and crushed immediately for cell subtype staining. Prior to fixation, fluorophore-labelled antibodies for CD19 (FITC; B cells), CD3e (PE; pan T cells) and DX5 (APC; NK cells) were incubated with splenocyte samples from each animal to allow for simultaneous, multiple subtype % analysis on the flow cytometer. The number of total spleen cells for each animal was measured by Scepter™ 2.0 Handheld Automated Cell Counter. The absolute number of lymphocyte subtype population (e.g., splenic B, T and NK cells) was calculated from the percentage of each subtype times total spleen cells for each animal. A one way ANOVA, with Dunnett's post hoc test, was used to compare the splenic lymphocytes number of the vehicle and test compound groups. The a level was set at p<0.05. Data were presented as the mean±SEM for each group.

[4] = 5% to 90% relative humidity, room temperature; listed as Crystalline 3-(1R,3s,5S)-3-((7-((5-methyl-1H-pyrazol-3-yl)amino)-1,6-naphthyrid))
Protocol: A weighed sample was used and the humidity was lowest possible value (close to 0% RH) at the start of the analysis. The DMS analysis consisted of an initial drying step (0% RH) for 120 minutes, followed by two cycles of sorption and desorption with a scan rate of 5% RH/step over the humidity range of 5% RH to 90% RH. The DMS run was performed isothermally at 25° C.

[5] = First in human study of safety, tolerability and pharmacokinetics in healthy subjects; assay type: in vivo; details: by comparison to other orally administered compounds
Protocol: Assay 9: First in Human Study to Evaluate the Safety, Tolerability and Pharmacokinetics in Healthy Subjects
The compound of Example 1 was evaluated in a double-blinded, randomized, placebo-controlled, single ascending dose (SAD) and multiple ascending dose (MAD) study of safety, tolerability, and pharmacokinetics in healthy subjects. Pharmacokinetic samples were collected up to 72 hours post the final dose in both the SAD study (after the first dose) and MAD study (after 14 days of once-daily dosing). The SAD study enrolled 5 cohorts and the MAD study enrolled 4 cohorts totaling 72 subjects, of which 71 completed the dosing period.
Plasma pharmacokinetic (PK) parameters were determined by non-compartmental analysis using WinNonLin Version 6.4.0 (Pharsight, St Louis, Mo.). The plasma PK parameter presented here is:
Cmax: Maximum Concentration in Plasma

[6] = Pharmacokinetics in plasma and the GI tract in rats; assay type: in vivo, Sprague Dawley rats; details: oral dosing in preclinical species
Protocol: Assay 6: Pharmacokinetics in Plasma and the GI Tract in Rats and Dogs A test compound was dosed to male Sprague Dawley rats (n=3) as described in Assay 5. […] At all time points, the plasma concentration was below the limit of quantitation of 0.001 μg/mL.

[7] = test system: oxazolone-induced colitis; experiment: Mouse model of oxazolone-induced colitis; assay type: in vivo, BALB/C mice; details: mice
Protocol: Assay 7: Mouse Model of Oxazalone-Induced Colitis
Oxazolone-induced colitis is an experimental model that has a histological resemblance to human ulcerative colitis (Heller et al. Immunology, 2002, 17, 629-638). Adult BALB/C mice from Harlan were used in the assay. On day 1, animals were lightly anesthetized with isoflurane and the hairs between the shoulder were carefully removed before oxazolone (4%, 150 μL, 4:1 acetone:olive oil formulation) or vehicle solution was slowly applied for skin sensitization. Seven days after skin sensitization, the mice were fasted overnight, anesthetized with isoflurane inhalation, and a 1 mL syringe equipped with a 3.5-F catheter, filled with oxazolone solution, was inserted carefully about 4 cm into the colon of the mouse. Following insertion, 50 μL of the oxazolone solution (1%, 1:1 ethanol:water formulation) was injected very slowly (over 30 sec using an injection pump) into the colon. The catheter was removed and the mice were held vertically (head down) for 2 min to ensure that the entire oxazolone solution remained inside the colon. Drug treatment (PO, BID or TID) or vehicle was initiated a day prior to the oxazolone intrarectal (IR) challenge. Two-day post oxazolone intrarectal challenge, the Disease Activity Index (DAI) was assessed by treatment-blinded experimenters for each mouse according to the criteria score: stool consistency score (0, normal; 2, loose; 4, diarrhea), gross bleeding score (0, absence; 2, blood tinged; 4, presence), and weight loss score (0, none; 1, 1%-5%; 2, 5%-10%; 3, 10%-20%; 4, more than 20%); DAI=average of (stool consistency score+gross bleeding score+weight loss score).
Selected compounds of the invention were tested in the assay. Efficacy in the model is evidenced by a decrease in DAI score as compared with the score from vehicle treated animals.

Sequence of JAK1 (P23458 whole entry): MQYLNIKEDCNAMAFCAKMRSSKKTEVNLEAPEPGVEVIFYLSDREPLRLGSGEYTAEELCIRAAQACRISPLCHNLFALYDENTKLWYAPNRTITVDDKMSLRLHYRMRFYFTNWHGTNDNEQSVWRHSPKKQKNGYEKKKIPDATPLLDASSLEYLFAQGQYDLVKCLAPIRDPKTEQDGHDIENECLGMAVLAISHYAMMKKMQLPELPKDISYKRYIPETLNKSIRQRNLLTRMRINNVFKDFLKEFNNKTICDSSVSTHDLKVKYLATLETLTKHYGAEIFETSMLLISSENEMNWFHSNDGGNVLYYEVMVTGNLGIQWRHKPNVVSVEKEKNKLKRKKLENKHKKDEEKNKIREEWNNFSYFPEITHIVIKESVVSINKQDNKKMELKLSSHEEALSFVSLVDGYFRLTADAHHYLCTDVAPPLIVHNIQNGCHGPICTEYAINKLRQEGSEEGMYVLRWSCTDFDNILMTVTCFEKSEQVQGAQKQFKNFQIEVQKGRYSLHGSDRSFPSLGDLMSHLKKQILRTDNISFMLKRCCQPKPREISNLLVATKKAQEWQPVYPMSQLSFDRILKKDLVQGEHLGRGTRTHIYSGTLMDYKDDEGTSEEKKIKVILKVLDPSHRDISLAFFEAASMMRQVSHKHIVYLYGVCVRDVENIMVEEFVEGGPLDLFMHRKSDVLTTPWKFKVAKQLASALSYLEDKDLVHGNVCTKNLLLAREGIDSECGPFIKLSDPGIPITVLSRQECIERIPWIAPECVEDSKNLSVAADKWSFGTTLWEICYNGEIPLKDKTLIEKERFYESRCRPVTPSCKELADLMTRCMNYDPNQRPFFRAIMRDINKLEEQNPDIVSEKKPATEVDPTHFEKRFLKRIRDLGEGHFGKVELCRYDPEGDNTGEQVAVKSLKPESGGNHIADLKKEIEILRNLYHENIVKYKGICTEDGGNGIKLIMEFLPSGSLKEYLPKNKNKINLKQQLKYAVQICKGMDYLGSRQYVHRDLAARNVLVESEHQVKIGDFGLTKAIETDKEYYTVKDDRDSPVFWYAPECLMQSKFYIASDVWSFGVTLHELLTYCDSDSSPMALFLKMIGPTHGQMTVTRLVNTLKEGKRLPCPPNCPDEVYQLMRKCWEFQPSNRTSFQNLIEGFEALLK
Sequence of TYK2 (P29597 whole entry): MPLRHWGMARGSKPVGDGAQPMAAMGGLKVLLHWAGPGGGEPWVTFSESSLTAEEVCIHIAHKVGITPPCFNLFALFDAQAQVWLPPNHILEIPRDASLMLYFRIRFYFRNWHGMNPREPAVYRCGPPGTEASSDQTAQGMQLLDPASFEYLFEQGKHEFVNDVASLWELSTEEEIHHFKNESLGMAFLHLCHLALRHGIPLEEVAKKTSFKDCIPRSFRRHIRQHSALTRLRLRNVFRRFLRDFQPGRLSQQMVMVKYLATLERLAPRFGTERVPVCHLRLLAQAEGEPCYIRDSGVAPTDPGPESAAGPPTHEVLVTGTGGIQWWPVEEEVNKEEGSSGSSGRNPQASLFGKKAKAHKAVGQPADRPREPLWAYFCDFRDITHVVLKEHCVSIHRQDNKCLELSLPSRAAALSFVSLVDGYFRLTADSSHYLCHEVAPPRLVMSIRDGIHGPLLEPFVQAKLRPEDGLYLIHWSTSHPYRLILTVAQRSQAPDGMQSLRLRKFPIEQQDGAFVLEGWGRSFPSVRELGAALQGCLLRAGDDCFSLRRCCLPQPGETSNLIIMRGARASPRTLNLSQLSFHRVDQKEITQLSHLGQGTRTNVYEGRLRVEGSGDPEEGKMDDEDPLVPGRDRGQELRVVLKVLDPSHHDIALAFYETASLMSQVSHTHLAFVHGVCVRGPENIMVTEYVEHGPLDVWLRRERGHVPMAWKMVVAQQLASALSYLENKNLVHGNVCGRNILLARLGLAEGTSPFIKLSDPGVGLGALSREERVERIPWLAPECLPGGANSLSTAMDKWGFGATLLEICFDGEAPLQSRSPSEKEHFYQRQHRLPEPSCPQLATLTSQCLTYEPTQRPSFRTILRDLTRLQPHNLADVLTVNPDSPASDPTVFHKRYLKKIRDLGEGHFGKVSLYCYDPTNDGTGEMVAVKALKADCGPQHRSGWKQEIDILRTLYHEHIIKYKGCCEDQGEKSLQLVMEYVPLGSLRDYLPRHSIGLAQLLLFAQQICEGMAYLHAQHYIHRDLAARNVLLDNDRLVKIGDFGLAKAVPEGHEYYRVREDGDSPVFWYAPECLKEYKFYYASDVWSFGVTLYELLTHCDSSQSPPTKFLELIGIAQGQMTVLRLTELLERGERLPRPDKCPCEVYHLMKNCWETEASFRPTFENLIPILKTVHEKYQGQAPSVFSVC
Sequence of JAK2 (O60674 whole entry): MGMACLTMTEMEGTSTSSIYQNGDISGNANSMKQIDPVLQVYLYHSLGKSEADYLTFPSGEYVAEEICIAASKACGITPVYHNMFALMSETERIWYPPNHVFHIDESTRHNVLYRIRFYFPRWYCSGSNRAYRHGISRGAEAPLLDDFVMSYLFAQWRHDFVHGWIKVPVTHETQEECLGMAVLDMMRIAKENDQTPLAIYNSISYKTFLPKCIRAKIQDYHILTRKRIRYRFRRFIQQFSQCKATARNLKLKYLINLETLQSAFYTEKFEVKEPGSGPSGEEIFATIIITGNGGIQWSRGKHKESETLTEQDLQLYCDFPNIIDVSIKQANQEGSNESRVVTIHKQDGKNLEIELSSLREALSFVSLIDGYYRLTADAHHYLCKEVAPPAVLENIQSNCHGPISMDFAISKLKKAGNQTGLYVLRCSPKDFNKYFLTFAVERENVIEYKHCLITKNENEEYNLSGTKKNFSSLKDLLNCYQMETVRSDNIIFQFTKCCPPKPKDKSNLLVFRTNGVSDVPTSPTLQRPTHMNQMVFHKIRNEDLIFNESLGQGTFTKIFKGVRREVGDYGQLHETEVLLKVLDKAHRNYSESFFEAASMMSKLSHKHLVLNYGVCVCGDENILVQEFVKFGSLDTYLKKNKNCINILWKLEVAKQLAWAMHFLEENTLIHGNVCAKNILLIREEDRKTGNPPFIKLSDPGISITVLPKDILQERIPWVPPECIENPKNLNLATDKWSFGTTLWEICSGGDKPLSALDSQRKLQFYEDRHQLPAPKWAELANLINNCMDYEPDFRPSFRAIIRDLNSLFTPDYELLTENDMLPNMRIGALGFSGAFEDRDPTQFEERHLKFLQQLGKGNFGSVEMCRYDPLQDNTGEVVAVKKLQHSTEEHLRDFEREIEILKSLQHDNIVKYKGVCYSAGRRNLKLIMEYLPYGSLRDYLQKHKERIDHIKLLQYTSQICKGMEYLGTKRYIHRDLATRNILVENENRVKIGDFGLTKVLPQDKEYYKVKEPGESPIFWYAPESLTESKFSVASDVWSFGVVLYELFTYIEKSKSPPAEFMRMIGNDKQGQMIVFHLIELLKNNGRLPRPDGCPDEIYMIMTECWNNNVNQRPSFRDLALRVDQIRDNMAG
Sequence of JAK3 (P52333 whole entry): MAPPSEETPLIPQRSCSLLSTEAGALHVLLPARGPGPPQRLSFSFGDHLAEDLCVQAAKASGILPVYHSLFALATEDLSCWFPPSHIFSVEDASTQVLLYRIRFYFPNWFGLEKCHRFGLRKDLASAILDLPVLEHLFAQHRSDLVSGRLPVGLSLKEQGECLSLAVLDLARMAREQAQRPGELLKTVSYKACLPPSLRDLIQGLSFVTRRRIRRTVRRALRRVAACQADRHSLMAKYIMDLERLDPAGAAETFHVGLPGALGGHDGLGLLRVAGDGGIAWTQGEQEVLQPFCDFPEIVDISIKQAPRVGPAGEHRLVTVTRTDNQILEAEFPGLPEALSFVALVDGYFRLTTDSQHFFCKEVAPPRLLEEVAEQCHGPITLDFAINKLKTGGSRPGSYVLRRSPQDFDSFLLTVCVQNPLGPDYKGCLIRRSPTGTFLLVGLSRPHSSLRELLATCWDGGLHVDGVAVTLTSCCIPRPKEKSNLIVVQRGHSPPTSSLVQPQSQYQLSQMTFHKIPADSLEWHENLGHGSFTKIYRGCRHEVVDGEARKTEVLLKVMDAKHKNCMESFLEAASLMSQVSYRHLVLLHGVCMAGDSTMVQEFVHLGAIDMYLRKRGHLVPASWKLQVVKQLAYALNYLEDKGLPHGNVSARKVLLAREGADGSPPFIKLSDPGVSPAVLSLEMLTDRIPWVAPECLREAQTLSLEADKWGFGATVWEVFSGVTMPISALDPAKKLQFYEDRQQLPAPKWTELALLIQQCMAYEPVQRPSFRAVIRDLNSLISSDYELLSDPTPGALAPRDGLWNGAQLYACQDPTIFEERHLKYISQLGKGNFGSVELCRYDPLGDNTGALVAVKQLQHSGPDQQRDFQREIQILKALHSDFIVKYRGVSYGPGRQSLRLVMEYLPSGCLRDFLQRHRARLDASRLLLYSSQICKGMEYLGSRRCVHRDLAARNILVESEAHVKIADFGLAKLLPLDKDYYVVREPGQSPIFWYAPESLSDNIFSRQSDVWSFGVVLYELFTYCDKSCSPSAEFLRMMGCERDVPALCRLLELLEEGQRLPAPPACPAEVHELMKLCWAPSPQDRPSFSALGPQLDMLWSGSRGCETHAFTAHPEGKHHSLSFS

| SMILES | JAK 3 (pKi) (JAK3) | BEAS2B pIC50 [1] | JAK 1 (pKi) (JAK1) | Tyk 2 (pKi) (TYK2) | THP-1 IL4 pIC50 [2] | JAK 2 (pKi) (JAK2) | other results |
| --- | --- | --- | --- | --- | --- | --- | --- |
| Cc1cnc2cc(Nc3cc(C)[nH]n3)nc(N[C@@H]3C[C@H]4CCC[C@@H](C3)N4S(C)(=O)=O)c2c1 [Example 6-8] | B (B represents a pKi value between 9 and 10 (Ki between 1 nM and 0.1 nM)) | A (A represents a pEC50 value ≥7.5 (EC50≤32 nM)) | B (B represents a pKi value between 9 and 10 (Ki between 1 nM and 0.1 nM)) | B (B represents a pKi value between 9 and 10 (Ki between 1 nM and 0.1 nM)) | A (A represents a pEC50 value ≥7.5 (EC50≤32 nM)) |  |  |
| COCC1CCCN1S(=O)(=O)N1[C@@H]2CCC[C@H]1C[C@H](Nc1nc(Nc3cc(C)[nH]n3)cc3ncccc13)C2 (some centres unmarked) [Example 4-28] | C (C represents a pKi value between 7 and 9 (Ki between 100 nM and 1 nM)) |  |  | B (B represents a pKi value between 9 and 10 (Ki between 1 nM and 0.1 nM)) | A (A represents a pEC50 value ≥7.5 (EC50≤32 nM)) | B (B represents a pKi value between 9 and 10 (Ki between 1 nM and 0.1 nM)) |  |
| Cc1cnc2cc(Nc3cc(C)[nH]n3)nc(N[C@@H]3C[C@H]4CC[C@@H](C3)N4S(C)(=O)=O)c2c1 [Example 6-5] | C (C represents a pKi value between 7 and 9 (Ki between 100 nM and 1 nM)) | A (A represents a pEC50 value ≥7.5 (EC50≤32 nM)) | B (B represents a pKi value between 9 and 10 (Ki between 1 nM and 0.1 nM)) | B (B represents a pKi value between 9 and 10 (Ki between 1 nM and 0.1 nM)) | A (A represents a pEC50 value ≥7.5 (EC50≤32 nM)) |  |  |
| C[C@@H]1CCN(C(=O)CC#N)C[C@@H]1N(C)c1ncnc2[nH]ccc12 [tofacitinib, reference compound] |  |  |  |  |  |  | splenic NK cell counts ([3]; 30 mg/kg PO BID): significantly decreased; treatment effect on B and T cell populations [3]: No treatment effect |
| Cc1cc(Nc2cc3ncccc3c(N[C@@H]3C[C@H]4CC[C@@H](C3)N4C(=O)C3(C#N)CC3)n2)n[nH]1 [Example 2-8] |  |  | B (B represents a pKi value between 9 and 10 (Ki between 1 nM and 0.1 nM)) | C (C represents a pKi value between 7 and 9 (Ki between 100 nM and 1 nM)) | B (B represents a pEC50 value between 6.7 and 7.5 (EC50 between 200 nM and 32 nM)) | B (B represents a pKi value between 9 and 10 (Ki between 1 nM and 0.1 nM)) |  |
| Cc1cc(Nc2cc3ncccc3c(N[C@@H]3C[C@H]4CC[C@@H](C3)N4CCC#N)n2)n[nH]1 [Form I, 3-((1R,3s,5S)-3-((7-((5-methyl-1H-pyrazol-3-yl)amino)-1,6-naphthyridin-5-yl)amino)-8-azabicyclo[3.2.1]octan-8-yl)propanenitrile] |  |  |  |  |  |  | weight gain / weight change on exposure to humidity [4]: less than 0.15% |
| Cc1cc(Nc2cc3ncccc3c(N[C@@H]3C[C@H]4CCC[C@@H](C3)N4C(=O)C3(C#N)CC3)n2)n[nH]1 [Example 2-20] |  | A (A represents a pEC50 value ≥7.5 (EC50≤32 nM)) | B (B represents a pKi value between 9 and 10 (Ki between 1 nM and 0.1 nM)) | C (C represents a pKi value between 7 and 9 (Ki between 100 nM and 1 nM)) | A (A represents a pEC50 value ≥7.5 (EC50≤32 nM)) | B (B represents a pKi value between 9 and 10 (Ki between 1 nM and 0.1 nM)) |  |
| Cc1cc(Nc2cc3ncccc3c(N[C@@H]3C[C@H]4CC[C@@H](C3)N4CCC#N)n2)n[nH]1 [Example 1, 3-((1R,3s,5S)-3-((7-((5-methyl-1H-pyrazol-3-yl)amino)-1,6-naphthyridin-5-yl)amino)-8-azabicyclo[3.2.1]octan-8-yl)propanenitrile] |  |  |  |  |  |  | oral bioavailability [5]: very low; exposure throughout the gastrointestinal tract vs exposure in plasma [6]: significantly higher exposure; activity in the oxazolone-induced colitis model [7]: demonstrated activity; decrease in DAI score as compared with vehicle treated animals ([7]; PO, 1, 3, and/or 10 mg/kg BID (doses up to 10 mg/kg BID)): statistically significant decrease; splenic NK cell counts ([3]; PO BID doses up to 100 mg/kg): unaffected; treatment effect on B and T cell populations [3]: No treatment effect |
